Source: ChEMBL document CHEMBL1201862, “PubChem BioAssay data set” (2004)
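The compound was tested at five concentrations on cells cultured in 96-well plates, with a 48-hour exposure period. GI50 is the concentration that inhibits growth by half.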 The source made the active and inactive calls. No stated cut-off is given here; in the data, active = GI50 up to about 1.1 µM and inactive = higher.

Assays:
Assay in all cases: growth of human tumour cells (NCI), 48 h
[1] = system: 786-0
[2] = system: A498
[3] = system: A549
[4] = system: ACHN
[5] = system: BT-549
[6] = system: CAKI-1
[7] = system: CCRF-CEM
[8] = system: COLO 205
[9] = system: DU-145
[10] = system: EKVX
[11] = system: HCC 2998
[12] = system: HCT-116
[13] = system: HCT-15
[14] = system: HL-60
[15] = system: HOP-62
[16] = system: HOP-92
[17] = system: HT-29
[18] = system: Hs-578T
[19] = system: IGROV-1
[20] = system: K562
[21] = system: KM12
[22] = system: LOX IMVI
[23] = system: M14
[24] = system: MCF7
[25] = system: MDA-MB-231
[26] = system: MDA-MB-435
[27] = system: MDA-N
[28] = system: MOLT-4
[29] = system: Malme-3M
[30] = system: NCI-H226
[31] = system: NCI-H23
[32] = system: NCI-H460
[33] = system: NCI-H522
[34] = system: NCI/ADR-RES
[35] = system: OVCAR-3
[36] = system: OVCAR-4
[37] = system: OVCAR-5
[38] = system: OVCAR-8
[39] = system: PC-3
[40] = system: RPMI-8226
[41] = system: RXF 393
[42] = system: SF-268
[43] = system: SF-295
[44] = system: SF-539
[45] = system: SK-MEL-28
[46] = system: SK-MEL-2
[47] = system: SK-MEL-5
[48] = system: SK-OV-3
[49] = system: SN12C
[50] = system: SNB-19
[51] = system: SNB-75
[52] = system: SR
[53] = system: SW-620
[54] = system: T47D
[55] = system: TK-10
[56] = system: U-251
[57] = system: UACC-257
[58] = system: UACC-62
[59] = system: UO-31

C=C(C(=O)OC)c1cc2ccccc2n1S(=O)(=O)c1ccccc1
GI50 [1]: 6.05 µM (inactive) | GI50 [2]: 2.15 µM (inactive) | GI50 [3]: 3.05 µM (inactive) | GI50 [4]: 1.8 µM (inactive) | GI50 [5]: 1.73 µM (inactive) | GI50 [6]: 0.82 µM (active) | GI50 [7]: 1.24 µM (inactive) | GI50 [8]: 1.95 µM (inactive) | GI50 [9]: 2.69 µM (inactive) | GI50 [10]: 12.1 µM (inactive) | GI50 [11]: 4 µM (inactive) | GI50 [12]: 6.55 µM (inactive) | GI50 [13]: 1.76 µM | GI50 [14]: 1.87 µM (inactive) | GI50 [15]: 3.43 µM (inactive) | GI50 [16]: 0.927 µM (active) | GI50 [17]: 2.91 µM (inactive) | GI50 [18]: 4.11 µM (inactive) | GI50 [19]: 1.55 µM (inactive) | GI50 [20]: 2.34 µM (inactive) | GI50 [21]: 2.04 µM (inactive) | GI50 [22]: 2.43 µM (inactive) | GI50 [23]: 2.67 µM (inactive) | GI50 [24]: 1.38 µM (inactive) | GI50 [25]: 1.98 µM (inactive) | GI50 [26]: 2.55 µM (inactive) | GI50 [27]: 2.7 µM (inactive) | GI50 [28]: 2.21 µM (inactive) | GI50 [29]: 2.11 µM (inactive) | GI50 [30]: 2.36 µM (inactive) | GI50 [31]: 3.44 µM (inactive) | GI50 [32]: 2.21 µM (inactive) | GI50 [33]: 0.891 µM (active) | GI50 [34]: 3.37 µM (inactive) | GI50 [35]: 3.4 µM (inactive) | GI50 [36]: 4.82 µM (inactive) | GI50 [37]: 5.68 µM (inactive) | GI50 [38]: 2.44 µM (inactive) | GI50 [39]: 1.96 µM (inactive) | GI50 [40]: 1.28 µM (inactive) | GI50 [41]: 0.792 µM (active) | GI50 [42]: 1.84 µM (inactive) | GI50 [43]: 7.66 µM (inactive) | GI50 [44]: 1.62 µM (inactive) | GI50 [45]: 2.38 µM (inactive) | GI50 [46]: 2.53 µM (inactive) | GI50 [47]: 2.14 µM (inactive) | GI50 [48]: 11.3 µM (inactive) | GI50 [49]: 2.67 µM (inactive) | GI50 [50]: 12.1 µM (inactive) | GI50 [51]: 3.3 µM (inactive) | GI50 [52]: 0.815 µM (active) | GI50 [53]: 2.09 µM (inactive) | GI50 [54]: 1.7 µM (inactive) | GI50 [55]: 1.57 µM (inactive) | GI50 [56]: 1.92 µM (inactive) | GI50 [57]: 4.86 µM (inactive) | GI50 [58]: 4.52 µM (inactive) | GI50 [59]: 2.36 µM (inactive)

Cc1cccc(C2ON=C(c3ccccc3)N2C23CC4CC(CC(C4)C2)C3)c1 (stereo not given)
GI50 [1]: > 10 µM (inactive) | GI50 [2]: > 10 µM (inactive) | GI50 [3]: > 10 µM (inactive) | GI50 [4]: > 10 µM (inactive) | GI50 [5]: > 10 µM (inactive) | GI50 [6]: > 10 µM (inactive) | GI50 [7]: > 10 µM (inactive) | GI50 [8]: > 10 µM (inactive) | GI50 [9]: > 10 µM (inactive) | GI50 [10]: > 10 µM (inactive) | GI50 [11]: > 10 µM (inactive) | GI50 [12]: > 10 µM (inactive) | GI50 [13]: > 10 µM | GI50 [14]: > 10 µM (inactive) | GI50 [15]: > 10 µM (inactive) | GI50 [16]: > 10 µM (inactive) | GI50 [17]: > 10 µM (inactive) | GI50 [18]: > 10 µM (inactive) | GI50 [19]: > 10 µM (inactive) | GI50 [20]: > 10 µM (inactive) | GI50 [21]: > 10 µM (inactive) | GI50 [22]: > 10 µM (inactive) | GI50 [23]: > 10 µM (inactive) | GI50 [24]: 3.6 µM (inactive) | GI50 [25]: > 10 µM (inactive) | GI50 [26]: > 10 µM (inactive) | GI50 [27]: > 10 µM (inactive) | GI50 [28]: > 10 µM (inactive) | GI50 [29]: > 10 µM (inactive) | GI50 [30]: > 10 µM (inactive) | GI50 [31]: > 10 µM (inactive) | GI50 [32]: > 10 µM (inactive) | GI50 [33]: > 10 µM (inactive) | GI50 [34]: > 10 µM (inactive) | GI50 [35]: > 10 µM (inactive) | GI50 [36]: > 10 µM (inactive) | GI50 [37]: > 10 µM (inactive) | GI50 [38]: > 10 µM (inactive) | GI50 [39]: > 10 µM (inactive) | GI50 [40]: > 10 µM (inactive) | GI50 [41]: > 10 µM (inactive) | GI50 [42]: > 10 µM (inactive) | GI50 [43]: > 10 µM (inactive) | GI50 [44]: > 10 µM (inactive) | GI50 [45]: > 10 µM (inactive) | GI50 [46]: > 10 µM (inactive) | GI50 [47]: > 10 µM (inactive) | GI50 [48]: > 10 µM (inactive) | GI50 [49]: > 10 µM (inactive) | GI50 [50]: > 10 µM (inactive) | GI50 [51]: 7.28 µM (inactive) | GI50 [52]: > 10 µM (inactive) | GI50 [53]: > 10 µM (inactive) | GI50 [54]: > 10 µM (inactive) | GI50 [55]: > 10 µM (inactive) | GI50 [56]: > 10 µM (inactive) | GI50 [57]: > 10 µM (inactive) | GI50 [58]: > 10 µM (inactive)

COCN1C(N)=C(C(=O)OC(C)(C)C)C2=CC(=O)C=CC21C (stereo not given)
GI50 [1]: 11.9 µM (inactive) | GI50 [2]: 20.1 µM (inactive) | GI50 [3]: 18.9 µM (inactive) | GI50 [4]: 7.01 µM (inactive) | GI50 [5]: 4.24 µM (inactive) | GI50 [6]: 15.2 µM (inactive) | GI50 [7]: 3.66 µM (inactive) | GI50 [8]: 5.01 µM (inactive) | GI50 [9]: 11.9 µM (inactive) | GI50 [10]: 16.5 µM (inactive) | GI50 [11]: 22.6 µM (inactive) | GI50 [12]: 7.83 µM (inactive) | GI50 [13]: 13.9 µM | GI50 [14]: 14.4 µM (inactive) | GI50 [15]: 28.4 µM (inactive) | GI50 [16]: 5.14 µM (inactive) | GI50 [17]: 6.64 µM (inactive) | GI50 [18]: 15.2 µM (inactive) | GI50 [19]: 13.1 µM (inactive) | GI50 [20]: 4.92 µM (inactive) | GI50 [21]: 16.6 µM (inactive) | GI50 [22]: 13.6 µM (inactive) | GI50 [23]: 15.8 µM (inactive) | GI50 [24]: 11 µM (inactive) | GI50 [25]: 15.3 µM (inactive) | GI50 [26]: 13.2 µM (inactive) | GI50 [27]: 16.1 µM (inactive) | GI50 [28]: 3.7 µM (inactive) | GI50 [29]: 9.75 µM (inactive) | GI50 [30]: 16.8 µM (inactive) | GI50 [31]: 15.4 µM (inactive) | GI50 [32]: 18.4 µM (inactive) | GI50 [33]: 3.4 µM (inactive) | GI50 [34]: 25.2 µM (inactive) | GI50 [36]: 13.6 µM (inactive) | GI50 [37]: 18.1 µM (inactive) | GI50 [38]: 18 µM (inactive) | GI50 [39]: 16.9 µM (inactive) | GI50 [40]: 20.4 µM (inactive) | GI50 [41]: 6.25 µM (inactive) | GI50 [42]: 15.8 µM (inactive) | GI50 [43]: 43.6 µM (inactive) | GI50 [44]: 17.4 µM (inactive) | GI50 [45]: 20.3 µM (inactive) | GI50 [46]: 17.3 µM (inactive) | GI50 [47]: 15.3 µM (inactive) | GI50 [48]: 34.6 µM (inactive) | GI50 [49]: 25.8 µM (inactive) | GI50 [50]: > 100 µM (inactive) | GI50 [51]: 19.1 µM (inactive) | GI50 [52]: 12.5 µM (inactive) | GI50 [53]: 4.99 µM (inactive) | GI50 [54]: 2.59 µM (inactive) | GI50 [55]: 13.4 µM (inactive) | GI50 [56]: 17 µM (inactive) | GI50 [57]: 10.6 µM (inactive) | GI50 [58]: 15.6 µM (inactive) | GI50 [59]: 13.6 µM (inactive)
